Laboratory results as given in patent publication US20240350522A1, “HYGROMYCIN A FOR TREATMENT OF DISEASES AND INFECTIONS” (FLIGHTPATH BIOSCIENCES, INC., priority 2021, published 2024).
Where “and” joins values, the source holds several entries; their conditions need not be identical. Identical values can stand only once.

Legend:
Format in all cases: cell-based
[1] = system: Treponema pallidum pallidum SS14 strain; test: T. pallidum susceptibility assay, co-culture with Sf1Ep cells, tp0574 (T47) qPCR after 7 days; conditions: penicillin 60 ng/ml, 7 days
[2] = system: Treponema pallidum pallidum Chicago strain; test: Treated treponemes seeded onto no-antibiotic plate, 7 more days, T47 qPCR (treponemicidal activity)
[3] = system: Treponema pallidum pallidum Chicago strain; test: T. pallidum susceptibility assay, co-culture with Sf1Ep cells, tp0574 (T47) qPCR after 7 days; conditions: penicillin 60 ng/ml, 7 days
[4] = system: Treponema pallidum pallidum SS14 strain; test: Treated treponemes seeded onto no-antibiotic plate, 7 more days, T47 qPCR (treponemicidal activity)
[5] = pre-treated with penicillin 60 ng/ml, seeded on no antibiotic plate, average
[6] = pre-treated with penicillin 60 ng/ml, seeded on no antibiotic plate, replicate wells

For `CC1(C)S[C@@H]2[C@H](NC(=O)Cc3ccccc3)C(=O)N2[C@H]1C(=O)O` [Pen., penicillin G, reference compound], the “Mean T47 copies/μL, Average” value ([1]; average of 8 replicates) was 216 copies/μL, the “Mean T47 copies/μL, experimental values” ([1]; replicate wells) was 189 copies/μL and 200 copies/μL and 166 copies/μL and 282 copies/μL and 184 copies/μL and 223 copies/μL and 214 copies/μL and 271 copies/μL and the “treponemicidal activity in words” value ([2]; Chicago strain, 60 ng/ml) was “treponemicidal”. The “Mean T47 copies/μL, Avg.” value [2, 5] was 26 copies/μL, the “Mean T47 copies/μL, Expt. values” [2, 6] was 12 copies/μL (2×) and 41 copies/μL and 74 copies/μL and 22 copies/μL (2×) and 15 copies/μL and 11 copies/μL and the “Mean T47 copies/μL, Avg.” value ([3]; average of 8 replicates) was 252 copies/μL. For the same compound, the “Mean T47 copies/μL, experimental values” ([3]; replicate wells) was 294 copies/μL and 226 copies/μL and 304 copies/μL and 137 copies/μL and 328 copies/μL and 261 copies/μL and 222 copies/μL and 241 copies/μL, the “treponemicidal activity in words” value ([4]; SS14 strain, 60 ng/ml) was “treponemicidal” and the “Mean T47 copies/μL, Avg.” value [4, 5] was 18 copies/μL. For the same compound, the “Mean T47 copies/μL, Expt. values” [4, 6] was 21 copies/μL (2×) and 17 copies/μL and 24 copies/μL and 10 copies/μL and 13 copies/μL and 27 copies/μL and 15 copies/μL.
